Assay results: patent US7098313B2, “DNA sequences coding for a polyol carrier and their use, in particular for the preparation of transgenic plants” (Centre National de la Recherche Scientifique, priority 2000, dated 2006)

Experiments:
AgMaT1 expression = details: saline stress for 4 weeks, daily watering with 300 mM of NaCl; RT-PCR
Experimental: The total RNA of celery phloem was isolated according to the method of Kay et al. (1987). The first strand of cDNA was reverse transcribed from the total RNA with the oligo dT primer by using the reverse transcriptase SuperScript™ II (Stratagene). […] The PCR conditions were as follows: 2 minutes at 95° C. then 30 cycles comprising denaturation for 30 seconds at 95° C., fixation for one minute at 47° C. and extension for 45 seconds at 72° C. The PCR products were analyzed by agarose gel electrophoresis and the intensity of the signal obtained was quantified using Photoshop 5.0 software (Adobe systems Inc.). The extension factor elF4A(10) (Mandel et al., 1995) was used as control gene, the expression of which is invariable.
The expression of AgMaT1 was monitored in plants having been subjected to saline stress for 4 weeks (daily watering with 300 mM of NaCl, Noiraud et al., 2000). The phloem of these plants as well as of the corresponding control plants (watered with water not containing NaCl) was removed in order to extract the RNA which was used to carry out RT-PCR reactions.

AgMaT1 = assay: Transport of radiolabelled mannitol in yeast cells expressing AgMaT1, with competitors; assay type: cell-based, Apium graveolens L.; details: MaDH4 S. cerevisiae expressing AgMaT1; 500 μM [3H]-mannitol, pH 4.5; competitor added 30 seconds before
Experimental: The cells were cultured until the start of the logarithmic phase (corresponding to an absorbance of […]), washed in distilled water and resuspended at 1% (weight/volume) in SC medium buffered to pH 4.5 with 25 mM MES. A 100 μl aliquot fraction of the cell suspension was incubated for 60, 120, 180 and 300 seconds in 100 μl of a solution containing of 500 μM [^3H]-mannitol. The reaction was stopped by adding 8 ml of water at 4° C. and by filtration through glass fibre filters (Sartorius). The radioactivity incorporated in the yeast cells was determined by counting using liquid scintillation (Packard). For the experiments with inhibitors or competitors, the product was added 30 seconds before the radioactive mannitol.
For a subsequent characterization of the function of the AgMaT1 protein, it was necessary to express the carrier in a functional manner in a heterologous system such as yeast cells. The cDNA of AgMaT1 was sub-cloned in the PstI/XhoI sites of the YEP 112A1XE shuttle vector which has a promoter/terminator box of the gene of alcohol dehydrogenase ADH1 of S. cerevisiae (Riesmeier et al., 1992). The competent MaDH4 cells were transformed with this construction and YEP 112A1XE was used as control.
All of the constructions were firstly tested for their ability to grow on mannitol as the only carbon source. […] The cells expressing AgMaT1 could grow very well on this polyol. In order to directly test the ability of the transformed cells to transport mannitol, the yeast cells were incubated in a medium containing [^3H]-mannitol for a few seconds to several minutes, the cells were washed and the radioactivity absorbed was measured by […] scintillation counting. […] However, the MaDH4 yeast strains, expressing AgMaT1, transport the [^3H]-mannitol at high speeds when they grow on a medium containing mannitol. The same result is obtained with the cells of transformed yeast growing on glycerol (data not indicated).

[Cl-].[Na+] [NaCl]
expression of AgMaT1 in the phloem (control plants taken as base 100) (AgMaT1 expression): 500%

OC[C@@H](O)[C@H](O)[C@H](O)[C@@H](O)CO [dulcitol]
inhibition of the absorption of mannitol (AgMaT1): inhibiting by half

O[C@H]1[C@H](O)[C@@H](O)[C@H](O)[C@@H](O)[C@H]1O [myo-inositol]
inhibition of the absorption of mannitol (AgMaT1): inhibiting by half

OC[C@@H](O)[C@@H](O)[C@H](O)[C@@H](O)CO [sorbitol]
inhibition of the absorption of mannitol (AgMaT1): inhibiting by half

OC[C@@H](O)[C@H](O)[C@@H](O)CO [xylitol]
inhibition of the absorption of mannitol (AgMaT1): inhibiting by half
